Read-outs that look alike come from different tables or passages of the source. Peptide text beside a SMILES is read from it.
Columns and labels:
[1] = test system: Thioglycollate-induced peritonitis in C57/Bl6J mice; test: Thioglycollate-induced peritonitis in C57/Bl6J wild type mice; type: in vivo, mouse
Method: C57/Bl6J mice were purchased from Charles River Laboratories (Kisslegg, Germany). For each experiment, the mice were age- and sex-matched. An intraperitoneal injection of 25 ml/kg body weight of sterile 8% (w/v) thioglycollate (Sigma-Aldrich) was used to induce peritonitis. 30 min before the thioglycollate-stimulus, animals were injected with different doses of isoQC-inhibitor isoQC-I. For lavage of the peritoneum, the animals were anesthetized using 2% isofluran. The peritoneal exudates were collected by washing the peritoneum with 8 ml of sterile PBS 4 h after thioglycollate injection. Cells of 1 ml lavage fluid were collected by centrifugation (300 g, 10 min) and stained according to the manufacturer's instructions for BD Trucount tubes (BD Trucount tubes; catalog no. 340334; BD Biosciences, Heidelberg, Germany). Cells were blocked with CD16/32 (Caltag) at 4° C. for 15 min. and stained with 7/4-FITC (Serotec, Dusseldorf, Germany)/Ly6G-PE (Miltenyi, Bergisch Gladbach, Germany) as well as IgG1-PE (BD)/IgG2a-FITC (Miltenyi) as isotype controls at room temperature for 15 min. After staining, erythrocytes were lysed with BD FACSLyse (BD) in the dark at room temperature for 15 min. After washing with PBS, flow cytometric analysis was performed on a BD FACSCalibur (BD) based on 5000 beads per sample as reference standard.

[2] = molecular target: T1, human isoQC (Homo sapiens, UniProt Q9NXS2); test: Inactivation of human isoQC by heterocyclic chelators; type: biochemical
Target sequence in this assay (Q9NXS2 whole entry): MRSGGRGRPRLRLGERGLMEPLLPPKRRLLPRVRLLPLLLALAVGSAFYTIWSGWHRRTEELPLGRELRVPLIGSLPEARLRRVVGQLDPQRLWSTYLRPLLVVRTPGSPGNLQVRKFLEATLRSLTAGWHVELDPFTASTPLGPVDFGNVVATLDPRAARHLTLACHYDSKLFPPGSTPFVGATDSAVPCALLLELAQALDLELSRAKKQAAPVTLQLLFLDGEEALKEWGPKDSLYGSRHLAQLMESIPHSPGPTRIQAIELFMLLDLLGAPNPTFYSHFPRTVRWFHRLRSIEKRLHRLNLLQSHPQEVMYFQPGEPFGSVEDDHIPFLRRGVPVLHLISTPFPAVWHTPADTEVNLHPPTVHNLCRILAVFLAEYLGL

[3] = molecular target: T2, mouse-isoQC (Mus musculus, UniProt Q8BH73, I74N); test: Inactivation/reactivation of mouse-isoQC by chelators and metal ions; conditions: for reactivation of mouse-isoQC apoenzyme: metal added after removal of the chelator
Method: The final dialysis was performed for 5 h. All buffers were prepared in metal-free polystyrene containers. Subsequently, the apoenzyme was centrifuged at 20.000×g for 1 h at 4° C., and the protein concentration was determined by UV absorbance.

[4] = molecular target: T1, human isoQC; test: Inhibitor assay, human isoQC (Ki/IC50, competitive inhibition)
Method: (§4) All measurements were performed with a NovoStar reader for microplates (BMG Labtechnologies) at 30° C. […] Excitation/emission wavelengths were 320/410 nm.

[5] = test system: human isoQC; test: as above; conditions: isoQC vs human QC
Method: as §4

[6] = molecular target: human QC (Homo sapiens, UniProt Q16769); test: Inhibitor assay, human QC (Ki/IC50, competitive inhibition)
Method: as §4

[7] = molecular target: T3, human isoQC (Homo sapiens, UniProt Q9NXS2, C369A/I73N); test: Inhibitor assay, human isoQC (Ki/IC50, competitive inhibition)
Method: as §4

[8] = molecular target: T2, mouse-isoQC; test: Kinetic parameters of conversion of peptide substrates by murine isoQC; type: biochemical; design: starting with codon 43 (Glu 43) of the open reading frame (counting from methionine II); yeast alpha-factor secretion signal (N); made in house; host or cells: Pichia pastoris X-33
Method: (§1) Excitation/emission wavelengths were 320/410 nm.
(§2) Excitation/emission wavelengths were 380/460 nm.
(§3) Kinetic data were evaluated using GraFit software.

[9] = molecular target: T1, human isoQC; test: Kinetic evaluation of peptide substrates of human isoQC; type: biochemical; design: The cDNA of the mature human isoQC starting with codon 30 (counting from methionine II); His6 (C-His) (C); yeast alpha-factor secretion signal (YSS) (N); made in house; host or cells: Pichia pastoris X-33; conditions: human isoQC expressed in E. coli BL21 (hisoQCdt)
Method: as §1, §2, §3
Target sequence in this assay (Q9NXS2 48-382): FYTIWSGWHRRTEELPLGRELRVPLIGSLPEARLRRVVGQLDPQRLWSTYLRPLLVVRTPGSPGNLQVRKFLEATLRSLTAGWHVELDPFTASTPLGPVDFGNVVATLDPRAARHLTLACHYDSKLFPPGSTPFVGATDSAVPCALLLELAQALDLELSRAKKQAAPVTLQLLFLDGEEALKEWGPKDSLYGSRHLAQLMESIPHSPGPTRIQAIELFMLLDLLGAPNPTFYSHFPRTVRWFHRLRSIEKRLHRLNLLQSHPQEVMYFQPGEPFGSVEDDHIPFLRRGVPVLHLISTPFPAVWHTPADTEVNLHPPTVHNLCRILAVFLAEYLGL

[10] = molecular target: T3, human isoQC; test: as above; type: biochemical; design: The cDNA of the mature human isoQC starting with codon 30 (counting from methionine II); His6 (C-His) (C); yeast alpha-factor secretion signal (YSS) (N); made in house; host or cells: Pichia pastoris X-33; conditions: human isoQC expressed in P. pastoris (YSShisoQC)
Method: as §1, §2, §3

T3 sequence (Q9NXS2 48-382 I73N/C369A): as the sequence (Q9NXS2 48-382) above, with I26N, C322A counted along it
T2 sequence (Q8BH73 61-383 I74N): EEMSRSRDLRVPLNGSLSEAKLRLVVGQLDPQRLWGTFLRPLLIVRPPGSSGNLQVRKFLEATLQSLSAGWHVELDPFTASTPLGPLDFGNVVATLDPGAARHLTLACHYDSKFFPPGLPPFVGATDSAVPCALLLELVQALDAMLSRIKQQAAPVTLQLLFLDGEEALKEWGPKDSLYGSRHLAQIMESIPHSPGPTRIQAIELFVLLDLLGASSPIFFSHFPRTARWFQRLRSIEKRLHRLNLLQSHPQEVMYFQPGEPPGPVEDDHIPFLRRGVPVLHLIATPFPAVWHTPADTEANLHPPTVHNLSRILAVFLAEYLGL
Sequence of human QC (Q16769 29-361): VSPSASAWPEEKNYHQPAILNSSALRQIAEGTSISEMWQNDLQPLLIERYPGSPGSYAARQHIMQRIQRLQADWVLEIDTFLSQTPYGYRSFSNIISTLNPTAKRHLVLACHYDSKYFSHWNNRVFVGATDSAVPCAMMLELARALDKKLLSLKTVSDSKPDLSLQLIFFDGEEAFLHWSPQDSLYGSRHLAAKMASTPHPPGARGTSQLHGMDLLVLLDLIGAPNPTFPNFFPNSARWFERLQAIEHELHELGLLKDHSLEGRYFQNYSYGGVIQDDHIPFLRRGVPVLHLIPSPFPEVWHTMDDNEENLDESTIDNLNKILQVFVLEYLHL

With `CCCOc1ccc(C2C(=O)NC(=O)N2c2ccc3[nH]cnc3c2)cc1` (racemic) [Example 6, 1-(1H-benzo[d]imidazol-5-yl)-5-(4-propoxyphenyl)imidazolidine-2,4-dione] the “infiltrating monocytes in the peritoneum (FACS)” value (“infiltrating monocytes” below) ([1]; 6 mg/kg ip) was “reduction”, the “infiltrating monocytes” value ([1]; 18 mg/kg ip) was “reduced the infiltration of monocytes down to baseline values” and the “pGlu-MCP-1 in lavage fluid” value ([1]; FIG. 25b, different doses) was “reduction of pGlu-content”. For the same compound, the “infiltrating monocytes” value ([1]; different doses ip 30 min before thioglycollate, lavage 4 h after) was “dose-dependent reduction”.

With `c1cnc2c(c1)ccc1cccnc12` [1,10-phenantroline] the “inactivation of human isoQC” value [2] was “inactivated” and the “inactivation of mouse-isoQC” value ([3]; dialysis against buffer containing 5 mM 1,10-phenantrolin and 5 mM EDTA) was “inactivation”.

For `COc1ccc(NC(=S)NCCCn2ccnc2)cc1OC.Cl` [1-(3-(1H-imidazol-1-yl)propyl)-3-(3,4-dimethoxyphenyl)thiourea hydrochloride], the Ki [4] was 480 ± 30 nM, the Ki ([4]; read-out: Ki-value, inhibition of human isoQC-catalyzed conversion of H-Gln-AMC into pGlu-AMC, FIG. 1, Michaelis-Menten model, linear competitive inhibition, inhibitor 0-5 μM) was 240 nM and the “drop in Ki, human isoQC compared with human QC” value [5] was 10 fold.

In the case of `Cn1ccnc1` [1-Methylimidazole], the Ki [6] is reported as 39.7 ± 0.2 µM, the Ki [4] is reported as 80000 ± 5000 nM and the Ki [7] is reported as 82000 ± 3000 nM.

`c1ccc2[nH]cnc2c1` [Benzimidazole] gave a Ki ([6]; read-out: Ki (μM) hQC, competitive inhibition) of 138 ± 4 µM, a Ki [4] of 200000 ± 8000 nM and a Ki [7] of 250000 ± 5000 nM.

In the case of `O=C(O)CN(CCN(CC(=O)O)CC(=O)O)CC(=O)O` [EDTA], the “inactivation of human isoQC” value [2] is reported as “inactivated”.

For `O=C1NC(=O)N(c2ccc3[nH]cnc3c2)C1c1ccc2nsnc2c1` (centres unmarked) [Example 1, 5-(benzo[c][1,2,5]thiadiazol-6-yl)-1-(1H-benzo[d]imidazol-5-yl)imidazolidine-2,4-dione], the IC50 [7] was 3.3 nM and the Ki [7] was 1.62 nM.

`O=C1NC(=O)N(c2ccc3[nH]cnc3c2)C1c1ccccc1` (centres unmarked) [Example 2, 1-(1H-benzo[d]imidazol-5-yl)-5-phenylimidazolidine-2,4-dione] showed an IC50 [7] of 29.6 nM and a Ki [7] of 16.4 nM.

`O=C1NC(=O)N(c2ccc3[nH]cnc3c2)C1c1cc(C(F)(F)F)ccc1F` (centres unmarked) [Example 4, 1-(1H-benzo[d]imidazol-5-yl)-5-(2-fluoro-5-(trifluoromethyl)phenyl)imidazolidine-2,4-dione] showed an IC50 [7] of 150 nM and a Ki [7] of 25.8 nM.

`O=C1NC(=O)N(c2ccc3[nH]cnc3c2)C1c1cc(F)ccc1Br` (centres unmarked) [Example 5, 1-(1H-benzo[d]imidazol-5-yl)-5-(2-bromo-5-fluorophenyl)imidazolidine-2,4-dione] was tested, and the IC50 [7] was 66 nM and the Ki [7] was 8.27 nM.

In the case of `O=C1NC(=O)N(c2ccc3[nH]cnc3c2)C1c1ccc(Cl)c(C(F)(F)F)c1` (centres unmarked) [Example 7, 1-(1H-benzo[d]imidazol-5-yl)-5-(4-chloro-3-(trifluoromethyl)phenyl)imidazolidine-2,4-dione], the IC50 [7] is reported as 1400 nM and the Ki [7] is reported as 35.2 nM.

For `COc1ccc(C2C(=O)NC(=O)N2c2ccc3[nH]cnc3c2)cc1O` (centres unmarked) [Example 9, 1-(1H-benzo[d]imidazol-5-yl)-5-(3-hydroxy-4-methoxyphenyl)imidazolidine-2,4-dione], the IC50 [7] was 30.3 nM and the Ki [7] was 2.66 nM.

For `O=C1NC(=O)N(c2ccc3[nH]cnc3c2)C1c1cccc(Cl)c1` (centres unmarked) [Example 12, 1-(1H-benzo[d]imidazol-5-yl)-5-(3-chlorophenyl)imidazolidine-2,4-dione], the IC50 [7] was 58 nM and the Ki [7] was 10.5 nM.

For `O=C1NC(=O)N(c2ccc3[nH]cnc3c2)C1c1ccc(Cl)cc1` (centres unmarked) [Example 13, 1-(1H-benzo[d]imidazol-5-yl)-5-(4-chlorophenyl)imidazolidine-2,4-dione], the IC50 [7] was 52 nM and the Ki [7] was 6.71 nM.

With `O=C1NC(=O)N(c2ccc3[nH]cnc3c2)C1c1ccccc1Cl` (centres unmarked) [Example 14, 1-(1H-benzo[d]imidazol-5-yl)-5-(2-chlorophenyl)imidazolidine-2,4-dione] the IC50 [7] was 40 nM and the Ki [7] was 3.07 nM.

For `O=C1NC(=O)N(c2ccc3[nH]cnc3c2)C1c1ccc(F)cc1` (centres unmarked) [Example 15, 1-(1H-benzo[d]imidazol-5-yl)-5-(4-fluorophenyl)imidazolidine-2,4-dione], the IC50 [7] was 60 nM and the Ki [7] was 12.3 nM.

Compound `O=C1NC(=O)N(c2ccc3[nH]cnc3c2)C1c1ccc2c(c1)OCCO2` (centres unmarked) [Example 16, 1-(1H-benzo[d]imidazol-5-yl)-5-(2,3-dihydrobenzo[b][1,4]dioxin-7-yl)imidazolidine-2,4-dione] has an IC50 [7] of 57.6 nM and a Ki [7] of 4.14 nM.

With `O=C1NC(=O)C2(Cc3ccccc3C2)N1c1ccc2[nH]cnc2c1` [Example 32, 3-(1H-benzimidazol-5-yl)-1′,3′-dihydro-2H,5H-spiro[imidazolidine-4,2′-indene]-2,5-dione] the IC50 [7] was 166 nM and the Ki [7] was 40.9 nM.

`O=C1NC(=S)C(c2ccc(Cl)cc2)N1c1ccc2[nH]cnc2c1` (centres unmarked) [Example 40, 1-(1H-benzo[d]imidazol-5-yl)-5-(4-chlorophenyl)-4-thioxoimidazolidin-2-one] showed an IC50 [7] of 58.3 nM and a Ki [7] of 11.4 nM.

In the case of `O=C1NC(=S)C(c2ccc(F)c(F)c2F)N1c1ccc2nc[nH]c2c1` (centres unmarked) [Example 41, 1-(1H-benzo[d]imidazol-5-yl)-5-(2,3,4-trifluorophenyl)-4-thioxoimidazolidin-2-one], the IC50 [7] is reported as 163 nM and the Ki [7] is reported as 34.5 nM.

In the case of `Cc1cc(=O)oc2cc(NC(=O)[C@@H](N)CCC(N)=O)ccc12` [Q-AMC, H-Gln-AMC], the Km [8] is reported as 0.022 ± 0.001 mM, the “kcat (s^−1) m-isoQC” value [8] is reported as 6.98 ± 0.35 s⁻¹ and the Km [9] is reported as 0.01 ± 0.0009 mM. The “kcat (s^−1) hisoQCdt” value [9] was 1.07 ± 0.03 s⁻¹, the Km [10] was 0.03 ± 0.0064 mM and the “kcat (s^−1) YSShisQC” value [10] was 3.72 ± 0.44 s⁻¹.

`NC(=O)CC[C@H](N)C(=O)Nc1ccc2ccccc2c1` [Q-βNA, H-Gln-βNA] was tested, and the Km [8] was 0.032 ± 0.003 mM, the “kcat (s^−1) m-isoQC” value [8] was 17.48 ± 0.97 s⁻¹ and the Km [9] was 0.03 ± 0.002 mM. For the same compound, the “kcat (s^−1) hisoQCdt” value [9] was 3.37 ± 0.12 s⁻¹, the Km [10] was 0.035 ± 0.0005 mM and the “kcat (s^−1) YSShisQC” value [10] was 8.16 ± 0.87 s⁻¹.

`CC(C)C[C@H](NC(=O)[C@H](CC(=O)O)NC(=O)[C@H](CCC(=O)O)NC(=O)[C@@H](N)CCC(N)=O)C(=O)O` [QEDL] (H-QEDL-OH) gave a Km [9] of 0.63 ± 0.052 mM and a Km [10] of 0.16 ± 0.01 mM.

`NC(=O)CC[C@H](N)C(=O)N[C@@H](CCC(=O)O)C(=O)O` [QE] (H-Gln-Glu-OH) showed a Km [9] of 0.7 ± 0.13 mM and a Km [10] of 0.61 ± 0.064 mM.

In the case of `C[C@H](NC(=O)[C@H](Cc1ccccc1)NC(=O)[C@@H](N)CCC(N)=O)C(=O)O` [QFA] (H-Gln-Phe-Ala-OH), the Km [9] is reported as 0.11 ± 0.016 mM and the Km [10] is reported as 0.104 ± 0.025 mM.

`NC(=O)CC[C@H](N)C(=O)NCC(=O)O` [QG] (H-Gln-Gly-OH) was tested, and the Km [8] was 0.16 ± 0.01 mM, the Km [9] was 0.42 ± 0.04 mM and the Km [10] was 0.36 ± 0.047 mM.

`NC(=O)CC[C@H](NC(=O)[C@@H](N)CCC(N)=O)C(=O)O` [QQ] (H-Gln-Gln-OH) gave a Km [9] of 0.11 ± 0.027 mM and a Km [10] of 0.11 ± 0.007 mM.

For `O=S(=O)([O-])[O-].[Zn+2]` [ZnSO4], the “reactivation of mouse-isoQC apoenzyme” value [3] was “complete reactivation”.

In the case of `O=C(O)c1cccc(C(=O)O)n1` [dipicolinic acid], the “inactivation of human isoQC” value [2] is reported as “inactivated”.

In the case of calcium, the “reactivation of mouse-isoQC apoenzyme” value [3] is reported as “No reactivation”.

In the case of manganese, the “reactivation of mouse-isoQC apoenzyme” value [3] is reported as “No reactivation”.
